According to patent US12459974B2, “Bicyclic peptide ligands specific for Nectin-4” (priority 2018, dated 2025):
pKi: −log10 of the molar value. *1 amine or outer side, *2 acyl side, *3 side chain or, on linkers, in order; H or OH if unused. Where a SMILES comes first, the peptide text is derived from it. Bridges are numbered along the chain shown (N, C = ends). [ ]: non-standard residue; d: D form. TATA = O=C(CC[*:1])N1CN(C(=O)CC[*:2])CN(C(=O)CC[*:3])C1; hArg = N=C(N)NCCCC[C@H](N)C(=O)O; Pip = O=C(O)[C@@H]1CCCCN1; βAla = NCCC(=O)O; Sar = CNCC(=O)O

Target: T1, human Nectin-4 (Homo sapiens, UniProt Q96NY8)
T1 sequence (Q96NY8 32-510): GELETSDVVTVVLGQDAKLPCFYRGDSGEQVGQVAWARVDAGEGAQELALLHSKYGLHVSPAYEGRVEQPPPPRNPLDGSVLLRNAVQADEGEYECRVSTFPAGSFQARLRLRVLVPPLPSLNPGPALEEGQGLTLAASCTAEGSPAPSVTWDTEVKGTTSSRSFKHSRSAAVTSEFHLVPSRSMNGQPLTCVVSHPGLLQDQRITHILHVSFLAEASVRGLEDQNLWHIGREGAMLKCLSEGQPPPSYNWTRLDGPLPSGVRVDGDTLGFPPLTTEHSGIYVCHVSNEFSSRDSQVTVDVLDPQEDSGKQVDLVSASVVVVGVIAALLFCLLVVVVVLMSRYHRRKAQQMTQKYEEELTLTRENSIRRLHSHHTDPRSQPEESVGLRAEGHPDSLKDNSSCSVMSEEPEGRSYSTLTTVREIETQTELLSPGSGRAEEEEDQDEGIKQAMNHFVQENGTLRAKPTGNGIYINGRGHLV
Test: Nectin-4 competition binding assay (fluorescence polarisation)
Settings: competition with fluorescent peptide SEQ ID NO: 217; read-out: Ki
Description: Peptides were diluted to an appropriate concentration in assay buffer as described in the direct binding assay with a maximum of 5% DMSO, then serially diluted 1 in 2. Five μL of diluted peptide was added to the plate followed by 10 μL of human Nectin-4, then 10 μL fluorescent peptide added. Measurements were conducted as for the direct binding assay, however the gain was determined prior to the first measurement. Data analysis was in Systat Sigmaplot version 12.0 where the mP values were fit to a user defined cubic equation to generate a Ki value: • f=ymin+(ymax−ymin)/Lig*((Lig*((2*((Klig+Kcomp+Lig+Comp-Prot*c)^2-3*(Kcomp*(Lig-Prot*c)+Klig*(Comp-Prot*c)+Klig*Kcomp))^0.5*COS(ARCCOS((−2*(Klig+Kcomp+Lig+Comp-Prot*c)^3+9*(Klig+Kcomp+Lig+Comp-Prot*c)*(Kcomp*(Lig-Prot*c)+Klig*(Comp-Prot*c)+Klig*Kcomp)−27*(−1*Klig*Kcomp*Prot*c)/(2*((((Klig+Kcomp+Lig+Comp-Prot*c)^2−3*(Kcomp*(Lig-Prot*c)+Klig*(Comp-Prot*c)+Klig*Kcomp))^3)^0.5)))/3))−(Klig+Kcomp+Lig+Comp-Prot*c)))/((3*Klig)+((2*((Klig+Kcomp+Lig+Comp-Prot*c)^2−3*(Kcomp*(Lig-Prot*c)+Klig*(Comp-Prot*c)+Klig*Kcomp))^0.5*COS (ARCCOS ((−2*(Klig+Kcomp+Lig+Comp-Prot*c)^3+9*(Klig+Kcomp+Lig+Comp-Prot*c)*(Kcomp*(Lig-Prot*c)+Klig*(Comp-Prot*c)+Klig*Kcomp)-27*(−1*Klig*Kcomp*Prot*c))/(2*((((Klig+Kcomp+Lig+Comp-Prot*c)^2-3*(Kcomp*(Lig-Prot*c)+Klig*(Comp-Prot+c)+Klig*Kcomp))^3)^0.5))/3)−(Klig+Kcomp+Lig+Comp-Prot*c)))).
“Lig”, “KLig” and “Prot” were all defined values relating to: fluorescent peptide concentration, the Kd of the fluorescent peptide and Nectin concentration respectively.

`CC[C@H](C)[C@@H]1NC(=O)[C@@H]2CCCN2C(=O)[C@H](Cc2c[nH]c3ccccc23)NC(=O)[C@H](C)NC(=O)[C@H](Cc2c[nH]c3ccccc23)NC(=O)[C@H](CC(N)=O)NC(=O)[C@H](CCCCN)NC(=O)[C@H](CCSC)NC(=O)[C@@H]2CSCCC(=O)N3CN(CN(C3)C(=O)CCSC[C@H](NC(=O)[C@H](C)N)C(=O)N3CCC[C@H]3C(=O)N[C@@H](Cc3ccccc3)C(=O)NCC(=O)N2)C(=O)CCSC[C@@H](C(=O)N[C@H](C(=O)N[C@@H](CC(N)=O)C(=O)N[C@@H](CCCCN)C(N)=O)[C@@H](C)O)NC(=O)[C@H](Cc2c[nH]c3ccccc23)NC1=O` [BCY7424, A-(SEQ ID NO: 30)-TNK] (H-ACPFGCMKNWAWPIWCTNK-NH2; linker 2-6-16 via TATA; N-terminus and C-terminus assumed) showed a pKi of 6.25.

Work on `CC[C@H](C)[C@@H]1NC(=O)[C@@H]2CCCN2C(=O)[C@H](CC(=O)O)NC(=O)[C@H](CO)NC(=O)[C@H](Cc2c[nH]c3ccccc23)NC(=O)[C@H](CC(N)=O)NC(=O)[C@H](CCCCN)NC(=O)[C@H](CCSC)NC(=O)[C@@H]2CSCCC(=O)N3CN(CN(C3)C(=O)CCSC[C@H](NC(C)=O)C(=O)N3CCC[C@H]3C(=O)N[C@@H](Cc3ccccc3)C(=O)NCC(=O)N2)C(=O)CCSC[C@@H](C(N)=O)NC(=O)[C@H](Cc2c[nH]c3ccccc23)NC1=O` [BCY7540, Ac-(SEQ ID NO: 8)] (Ac-CPFGCMKNWSDPIWC-NH2; linker 1-5-15 via TATA; C-terminus assumed) yielded a pKi of 6.45.

Compound `CC[C@H](C)[C@@H]1NC(=O)[C@@H]2CCCN2C(=O)[C@H](Cc2c[nH]c3ccccc23)NC(=O)[C@H](CO)NC(=O)[C@H](Cc2c[nH]c3ccccc23)NC(=O)[C@H](CC(N)=O)NC(=O)[C@H](CCCCNC(=N)N)NC(=O)[C@H](CCSC)NC(=O)[C@@H]2CSCCC(=O)N3CN(CN(C3)C(=O)CCSC[C@H](NC(=O)CN(C)C(=O)CN(C)C(=O)CN(C)C(=O)CN(C)C(=O)CN(C)C(=O)CCNC(C)=O)C(=O)N3CCC[C@H]3C(=O)N[C@@H](Cc3ccccc3)C(=O)N[C@H](CC(=O)O)C(=O)N2)C(=O)CCSC[C@@H](C(N)=O)NC(=O)[C@H](Cc2c[nH]c3ccccc23)NC1=O` [BCY7558, Ac-[B-Ala][Sar5]-(SEQ ID NO: 76)] (Ac-[βAla][Sar][Sar][Sar][Sar][Sar]CPF[dD]CM[hArg]NWSWPIWC-NH2; linker 7-11-21 via TATA) has a pKi of 7.66.

In the case of `CC[C@H](C)[C@@H]1NC(=O)[C@@H]2CCCN2C(=O)[C@H](Cc2ccccc2)NC(=O)[C@H](CO)NC(=O)[C@H](Cc2c[nH]c3ccccc23)NC(=O)[C@H](CC(N)=O)NC(=O)[C@H](CCCCN)NC(=O)[C@H](CCSC)NC(=O)[C@@H]2CSCCC(=O)N3CN(CN(C3)C(=O)CCSC[C@H](NC(C)=O)C(=O)N3CCC[C@H]3C(=O)N[C@@H](Cc3ccccc3)C(=O)NCC(=O)N2)C(=O)CCSC[C@@H](C(N)=O)NC(=O)[C@H](Cc2c[nH]c3ccccc23)NC1=O` [BCY7589, Ac-(SEQ ID NO: 84)] (Ac-CPFGCMKNWSFPIWC-NH2; linker 1-5-15 via TATA; C-terminus assumed), the pKi was 7.46.

Compound `CC[C@H](C)[C@@H]1NC(=O)[C@@H]2CCCN2C(=O)[C@H](Cc2ccc(O)cc2)NC(=O)[C@H](CO)NC(=O)[C@H](Cc2c[nH]c3ccccc23)NC(=O)[C@H](CC(N)=O)NC(=O)[C@H](CCCCN)NC(=O)[C@H](CCSC)NC(=O)[C@@H]2CSCCC(=O)N3CN(CN(C3)C(=O)CCSC[C@H](NC(C)=O)C(=O)N3CCC[C@H]3C(=O)N[C@@H](Cc3ccccc3)C(=O)NCC(=O)N2)C(=O)CCSC[C@@H](C(N)=O)NC(=O)[C@H](Cc2c[nH]c3ccccc23)NC1=O` [BCY7590, Ac-(SEQ ID NO: 85)] (Ac-CPFGCMKNWSYPIWC-NH2; linker 1-5-15 via TATA; C-terminus assumed) has a pKi of 7.41.

`CC[C@H](C)[C@@H]1NC(=O)[C@@H]2CCCN2C(=O)[C@H](Cc2ccc3ccccc3c2)NC(=O)[C@H](CO)NC(=O)[C@H](Cc2c[nH]c3ccccc23)NC(=O)[C@H](CC(N)=O)NC(=O)[C@H](CCCCN)NC(=O)[C@H](CCSC)NC(=O)[C@@H]2CSCCC(=O)N3CN(CN(C3)C(=O)CCSC[C@H](NC(C)=O)C(=O)N3CCC[C@H]3C(=O)N[C@@H](Cc3ccccc3)C(=O)NCC(=O)N2)C(=O)CCSC[C@@H](C(N)=O)NC(=O)[C@H](Cc2c[nH]c3ccccc23)NC1=O` [BCY7592, Ac-(SEQ ID NO: 87)] showed a pKi of 7.43.

For `CC[C@H](C)[C@@H]1NC(=O)[C@@H]2CCCCN2C(=O)[C@H](Cc2c[nH]c3ccccc23)NC(=O)[C@H](CO)NC(=O)[C@H](Cc2c[nH]c3ccccc23)NC(=O)[C@H](CC(N)=O)NC(=O)[C@H](CCCCN)NC(=O)[C@H](CCSC)NC(=O)[C@@H]2CSCCC(=O)N3CN(CN(C3)C(=O)CCSC[C@H](NC(C)=O)C(=O)N3CCC[C@H]3C(=O)N[C@@H](Cc3ccccc3)C(=O)NCC(=O)N2)C(=O)CCSC[C@@H](C(N)=O)NC(=O)[C@H](Cc2c[nH]c3ccccc23)NC1=O` [BCY7595, Ac-(SEQ ID NO: 90)] (Ac-CPFGCMKNWSW[Pip]IWC-NH2; linker 1-5-15 via TATA), the pKi was 6.66.

For `CC[C@H](C)[C@@H]1NC(=O)[C@@H]2CCCN2C(=O)[C@H](Cc2c[nH]c3ccccc23)NC(=O)[C@H](CO)NC(=O)[C@H](Cc2c[nH]c3ccccc23)NC(=O)[C@H](CC(N)=O)NC(=O)[C@H](CCCCN)NC(=O)[C@H](CCSC)NC(=O)[C@@H]2CSCCC(=O)N3CN(CN(C3)C(=O)CCSC[C@H](NC(C)=O)C(=O)N3CCC[C@H]3C(=O)N[C@@H](Cc3ccccc3)C(=O)NCC(=O)N2)C(=O)CCSC[C@@H](C(N)=O)NC(=O)[C@H](Cc2ccccc2)NC1=O` [BCY7596, Ac-(SEQ ID NO: 91)] (Ac-CPFGCMKNWSWPIFC-NH2; linker 1-5-15 via TATA), the pKi was 6.45.

Work on `CC[C@H](C)[C@@H]1NC(=O)[C@@H]2CCCN2C(=O)[C@H](Cc2c[nH]c3ccccc23)NC(=O)[C@H](CO)NC(=O)[C@H](Cc2c[nH]c3ccccc23)NC(=O)[C@H](CC(N)=O)NC(=O)[C@H](CCCCN)NC(=O)[C@H](CCSC)NC(=O)[C@@H]2CSCCC(=O)N3CN(CN(C3)C(=O)CCSC[C@H](NC(C)=O)C(=O)N3CCC[C@H]3C(=O)N[C@@H](Cc3ccccc3)C(=O)NCC(=O)N2)C(=O)CCSC[C@@H](C(N)=O)NC(=O)[C@H](Cc2ccc(O)cc2)NC1=O` [BCY7597, Ac-(SEQ ID NO: 92)] (Ac-CPFGCMKNWSWPIYC-NH2; linker 1-5-15 via TATA; C-terminus assumed) yielded a pKi of 6.77.

`CC[C@H](C)[C@@H]1NC(=O)[C@@H]2CCCN2C(=O)[C@H](Cc2c[nH]c3ccccc23)NC(=O)[C@H](CO)NC(=O)[C@H](Cc2c[nH]c3ccccc23)NC(=O)[C@H](CC(N)=O)NC(=O)[C@H](CCCCN)NC(=O)[C@H](CCSC)NC(=O)[C@@H]2CSCCC(=O)N3CN(CN(C3)C(=O)CCSC[C@H](NC(=O)[C@@H](CC(=O)O)NC(C)=O)C(=O)N3CCC[C@H]3C(=O)N[C@@H](Cc3ccccc3)C(=O)NCC(=O)N2)C(=O)CCSC[C@@H](C(N)=O)NC(=O)[C@H](Cc2c[nH]c3ccccc23)NC1=O` [BCY7606, Ac-[dD]-(SEQ ID NO: 1)] (Ac-[dD]CPFGCMKNWSWPIWC-NH2; linker 2-6-16 via TATA) was tested, and the pKi was 7.47.

`CC[C@H](C)[C@@H]1NC(=O)[C@@H]2CCCN2C(=O)[C@H](Cc2c[nH]c3ccccc23)NC(=O)[C@H](CO)NC(=O)[C@H](Cc2c[nH]c3ccccc23)NC(=O)[C@H](CC(N)=O)NC(=O)[C@H](CCCCN)NC(=O)[C@H](CCSC)NC(=O)[C@@H]2CSCCC(=O)N3CN(CN(C3)C(=O)CCSC[C@H](NC(C)=O)C(=O)NCC(=O)N[C@@H](Cc3ccccc3)C(=O)NCC(=O)N2)C(=O)CCSC[C@@H](C(N)=O)NC(=O)[C@H](Cc2c[nH]c3ccccc23)NC1=O` [BCY7607, Ac-(SEQ ID NO: 94)] (Ac-CGFGCMKNWSWPIWC-NH2; linker 1-5-15 via TATA) showed a pKi of 7.11.

Compound `CC[C@H](C)[C@@H]1NC(=O)[C@@H]2CCCN2C(=O)[C@H](Cc2c[nH]c3ccccc23)NC(=O)[C@H](CO)NC(=O)[C@H](Cc2c[nH]c3ccccc23)NC(=O)[C@H](CC(N)=O)NC(=O)[C@@H]2CCCN2C(=O)[C@H](CCSC)NC(=O)[C@@H]2CSCCC(=O)N3CN(CN(C3)C(=O)CCSC[C@H](NC(C)=O)C(=O)N3CCC[C@H]3C(=O)N[C@@H](Cc3ccccc3)C(=O)NCC(=O)N2)C(=O)CCSC[C@@H](C(N)=O)NC(=O)[C@H](Cc2c[nH]c3ccccc23)NC1=O` [BCY7614, Ac-(SEQ ID NO: 99)] (Ac-CPFGCMPNWSWPIWC-NH2; linker 1-5-15 via TATA; C-terminus assumed) has a pKi of 7.68.
